Literature values as cited in patent US8673972B2, “Human papilloma virus as predictor of cancer prognosis” (Foundation Medicine, Inc., priority 2012, dated 2014).

Legend:
Conditions in all cases: stated in words only
CDK1 = CDK1 (Homo sapiens, UniProt P06493)
CDK2 = CDK2 (Homo sapiens, UniProt P24941)
CDK4 = CDK4 (Homo sapiens, UniProt P11802)
CDK7 = CDK7 (Homo sapiens, UniProt P50613)
CDK9 = CDK9 (Homo sapiens, UniProt P50750)
CDK9, sequence (P50750 whole entry): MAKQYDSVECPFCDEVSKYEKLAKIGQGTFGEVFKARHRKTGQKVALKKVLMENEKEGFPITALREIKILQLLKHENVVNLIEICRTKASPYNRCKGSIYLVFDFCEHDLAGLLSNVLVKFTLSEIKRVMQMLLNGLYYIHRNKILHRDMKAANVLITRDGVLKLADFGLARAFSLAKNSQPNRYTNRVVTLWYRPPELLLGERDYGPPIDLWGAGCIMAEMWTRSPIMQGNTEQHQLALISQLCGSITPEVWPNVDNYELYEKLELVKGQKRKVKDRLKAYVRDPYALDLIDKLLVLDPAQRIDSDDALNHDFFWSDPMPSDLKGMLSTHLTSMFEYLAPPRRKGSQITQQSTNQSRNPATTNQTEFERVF
CDK9, sequence (O60563 whole entry partner): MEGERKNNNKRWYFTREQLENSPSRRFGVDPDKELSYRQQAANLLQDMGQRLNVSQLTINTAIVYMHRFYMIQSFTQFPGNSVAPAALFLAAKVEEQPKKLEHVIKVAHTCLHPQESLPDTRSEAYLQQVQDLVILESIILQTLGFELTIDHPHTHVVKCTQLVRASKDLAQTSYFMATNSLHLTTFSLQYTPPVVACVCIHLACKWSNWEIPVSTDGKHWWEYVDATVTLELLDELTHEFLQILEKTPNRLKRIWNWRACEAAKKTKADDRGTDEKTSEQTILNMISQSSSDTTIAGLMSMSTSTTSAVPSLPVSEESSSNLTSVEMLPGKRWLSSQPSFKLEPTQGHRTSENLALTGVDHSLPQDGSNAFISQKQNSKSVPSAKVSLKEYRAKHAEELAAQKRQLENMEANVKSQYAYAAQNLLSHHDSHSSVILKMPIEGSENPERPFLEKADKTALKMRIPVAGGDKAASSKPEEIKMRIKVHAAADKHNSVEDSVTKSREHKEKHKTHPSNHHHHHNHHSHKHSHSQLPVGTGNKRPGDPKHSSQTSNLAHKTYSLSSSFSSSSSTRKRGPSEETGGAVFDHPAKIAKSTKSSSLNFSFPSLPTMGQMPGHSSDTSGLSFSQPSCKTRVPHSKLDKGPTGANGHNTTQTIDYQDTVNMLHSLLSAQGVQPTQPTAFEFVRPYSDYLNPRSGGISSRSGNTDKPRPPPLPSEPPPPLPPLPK

CDK4, sequence (P11802 whole entry): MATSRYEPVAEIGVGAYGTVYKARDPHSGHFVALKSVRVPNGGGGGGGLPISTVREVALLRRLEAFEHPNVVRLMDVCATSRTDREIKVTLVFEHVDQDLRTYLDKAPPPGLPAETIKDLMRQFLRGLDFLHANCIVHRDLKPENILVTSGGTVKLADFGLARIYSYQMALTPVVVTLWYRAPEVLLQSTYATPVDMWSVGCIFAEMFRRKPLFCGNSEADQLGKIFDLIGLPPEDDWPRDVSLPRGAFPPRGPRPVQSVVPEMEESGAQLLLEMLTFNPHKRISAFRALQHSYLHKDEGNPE
CDK4, sequence (P24385 whole entry partner): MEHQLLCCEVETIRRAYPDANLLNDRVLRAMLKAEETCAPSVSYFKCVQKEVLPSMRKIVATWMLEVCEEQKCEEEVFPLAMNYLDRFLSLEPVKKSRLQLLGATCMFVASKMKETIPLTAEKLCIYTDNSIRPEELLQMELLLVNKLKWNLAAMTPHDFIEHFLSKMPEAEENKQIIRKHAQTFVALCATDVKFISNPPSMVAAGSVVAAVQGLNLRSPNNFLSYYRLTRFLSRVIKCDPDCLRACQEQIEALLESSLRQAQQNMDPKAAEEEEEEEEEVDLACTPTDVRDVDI
CDK1, sequence (P06493 whole entry): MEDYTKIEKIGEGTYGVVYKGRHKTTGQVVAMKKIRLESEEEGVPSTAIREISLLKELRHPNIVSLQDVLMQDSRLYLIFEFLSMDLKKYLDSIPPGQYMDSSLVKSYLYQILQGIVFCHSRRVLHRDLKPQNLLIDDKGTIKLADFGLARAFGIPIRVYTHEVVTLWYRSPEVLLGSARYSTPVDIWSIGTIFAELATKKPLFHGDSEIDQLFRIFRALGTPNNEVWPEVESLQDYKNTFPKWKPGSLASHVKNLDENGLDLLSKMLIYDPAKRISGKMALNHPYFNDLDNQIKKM
CDK1, sequence (P14635 whole entry partner): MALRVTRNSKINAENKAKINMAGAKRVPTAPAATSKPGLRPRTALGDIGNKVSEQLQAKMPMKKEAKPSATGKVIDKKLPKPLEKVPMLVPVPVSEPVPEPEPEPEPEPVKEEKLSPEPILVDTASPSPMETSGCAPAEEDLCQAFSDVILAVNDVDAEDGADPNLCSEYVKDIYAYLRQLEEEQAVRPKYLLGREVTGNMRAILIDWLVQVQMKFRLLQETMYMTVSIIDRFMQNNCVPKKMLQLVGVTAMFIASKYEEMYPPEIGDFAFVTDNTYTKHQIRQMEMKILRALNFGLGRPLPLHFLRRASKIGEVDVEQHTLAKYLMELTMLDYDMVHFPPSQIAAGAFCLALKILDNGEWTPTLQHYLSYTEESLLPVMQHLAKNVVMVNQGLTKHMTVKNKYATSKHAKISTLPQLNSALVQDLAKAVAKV
CDK7, sequence (P50613 whole entry): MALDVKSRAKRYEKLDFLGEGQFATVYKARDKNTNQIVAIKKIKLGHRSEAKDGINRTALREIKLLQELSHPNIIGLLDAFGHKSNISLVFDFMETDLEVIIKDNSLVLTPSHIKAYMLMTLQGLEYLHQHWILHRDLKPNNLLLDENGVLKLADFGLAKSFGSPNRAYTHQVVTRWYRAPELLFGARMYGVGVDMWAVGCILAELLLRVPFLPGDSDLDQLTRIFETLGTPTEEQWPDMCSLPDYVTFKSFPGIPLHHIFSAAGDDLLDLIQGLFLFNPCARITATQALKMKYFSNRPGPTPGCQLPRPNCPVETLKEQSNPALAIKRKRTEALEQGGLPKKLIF
CDK7, sequence (P51946 whole entry partner): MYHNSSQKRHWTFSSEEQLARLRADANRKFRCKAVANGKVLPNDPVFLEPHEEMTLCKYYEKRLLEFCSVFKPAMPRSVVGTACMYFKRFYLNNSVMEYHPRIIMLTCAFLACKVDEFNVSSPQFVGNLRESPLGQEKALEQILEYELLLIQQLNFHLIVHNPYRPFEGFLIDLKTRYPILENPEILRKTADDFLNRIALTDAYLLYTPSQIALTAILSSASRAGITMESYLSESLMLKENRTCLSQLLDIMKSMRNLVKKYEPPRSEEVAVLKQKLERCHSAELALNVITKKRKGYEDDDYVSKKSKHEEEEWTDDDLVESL
CDK7, sequence (P51948 whole entry partner): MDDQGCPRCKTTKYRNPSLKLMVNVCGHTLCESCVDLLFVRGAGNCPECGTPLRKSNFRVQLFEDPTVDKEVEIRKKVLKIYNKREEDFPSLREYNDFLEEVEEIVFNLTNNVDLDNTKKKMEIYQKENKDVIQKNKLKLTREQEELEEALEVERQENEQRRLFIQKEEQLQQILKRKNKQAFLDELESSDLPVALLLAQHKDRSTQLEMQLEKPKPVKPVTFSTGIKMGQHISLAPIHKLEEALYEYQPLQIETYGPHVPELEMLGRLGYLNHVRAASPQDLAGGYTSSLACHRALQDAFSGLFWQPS

IC50 CDK1, in words (CDK1): nanomolar range
IC50 CDK2, in words (CDK2): nanomolar range
IC50 CDK4, in words (CDK4): nanomolar range
IC50 CDK7, in words (CDK7): nanomolar range
IC50 CDK9, in words (CDK9): nanomolar range
SMILES: CC1(C)/C(=C2/C(=O)Nc3ccc(S(N)(=O)=O)cc32)Nc2ccccc21 [ZK-304709, (Z)-3,3-dimethyl-2′-oxo-[2,3′-biindolinylidene]-5′-sulfonamide]
